Data set [1] is described as follows: Metabolic stability in rat liver microsomes assessed as parent compound remaining at 1 uM measured at 15 mins by LC-MS/MS analysis. It counts as ADME, Microsome. To be noted: read-out: Stabilty. (Liver microsomes are vesicles of endoplasmic reticulum, rich in cytochrome P450 enzymes.)
Data set [2] concerns the target T1, Muscarinic acetylcholine receptor M1 (Homo sapiens, UniProt P11229).
T1 sequence (P11229 whole entry): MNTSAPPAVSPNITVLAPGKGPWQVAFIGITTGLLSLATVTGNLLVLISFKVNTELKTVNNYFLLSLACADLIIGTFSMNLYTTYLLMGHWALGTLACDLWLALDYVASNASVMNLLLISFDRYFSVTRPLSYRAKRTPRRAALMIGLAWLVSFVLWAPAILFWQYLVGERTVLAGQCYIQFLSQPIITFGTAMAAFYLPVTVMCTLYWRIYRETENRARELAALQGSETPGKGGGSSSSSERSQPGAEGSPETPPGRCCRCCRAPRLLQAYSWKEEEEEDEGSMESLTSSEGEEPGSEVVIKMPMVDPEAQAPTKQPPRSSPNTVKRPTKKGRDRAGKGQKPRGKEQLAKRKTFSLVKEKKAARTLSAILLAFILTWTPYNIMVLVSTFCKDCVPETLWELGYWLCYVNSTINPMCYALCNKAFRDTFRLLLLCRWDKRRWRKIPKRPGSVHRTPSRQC
The experiment in a line: Antagonist activity at human recombinant muscarinic receptor M1 expressed in CHO-K1 cells assessed as EC80 acetylcholine-induced calcium flux incubated for 30 mins. It is filed as functional, cell-based. The following applies: read-out: IC50. A general note: Calcium flux is commonly read through the fluorescence of an indicator in the cells.

The values that follow come from ChEMBL document CHEMBL4673395, “Discovery of PIPE-359, a Brain-Penetrant, Selective M Receptor Antagonist with Robust Efficacy in Murine MOG-EAE” (ACS Med Chem Lett, 2021).

As for `Cc1cc(F)cnc1N1CCN(C(=O)CCCc2cccc3nc(N)sc23)[C@@H](C)C1`, the remaining at 0.25 h, 1 µM in data set [1] is 3.7%.

Regarding `Cc1cc(F)cnc1N1CCN(C(=O)CCCc2cccc3ncsc23)[C@@H](C)C1`, in data set [1], the remaining at 0.25 h, 1 µM stood at 5.3%. In data set [2], the IC50 – broadly, the concentration that inhibits the measured activity by half – is 24 nM.

Take `N#Cc1cnccc1N1CCN(C(=O)CCCc2cccc3ncccc23)CC1`: in data set [2], the IC50 came to 1100 nM.

Regarding `O=C(CCCc1cccc2ncccc12)N1CCN(c2ccncc2F)CC1`, the IC50 in data set [2] worked out at 490 nM.

Consider `Cc1cc(F)cnc1N1CCN(C(=O)CCCc2cccc3ncoc23)[C@@H](C)C1`, for which the remaining at 0.25 h, 1 µM in data set [1] was 0%.

In the case of `Cc1cc(F)cnc1N1CCN(C(=O)CCCc2cccc3ncncc23)[C@@H](C)C1`, in data set [1], the remaining at 0.25 h, 1 µM is 0%. For the same molecule, the IC50 in data set [2] worked out at 83 nM.

Take `N#Cc1ccc(N2C3COCC2CN(C(=O)CCS(=O)(=O)c2cccc4ncsc24)C3)nc1`: the IC50 in data set [2] worked out at 31 nM.

`C[C@@H]1CN(c2ccncc2Cl)CCN1C(=O)CCCc1cccc2ncccc12`: in data set [2], the IC50 came out at 38 nM.

On to `O=C(CCS(=O)(=O)c1cccc2ncsc12)N1CCN(c2ccncc2F)CC1`, for which the remaining at 0.25 h, 1 µM in data set [1] is 29%. Further, the IC50 in data set [2] was determined as 380 nM.

With `Cc1cc(F)cnc1N1CCN(C(=O)CCS(=O)(=O)c2cccc3ncsc23)[C@@H](C)C1`, in data set [1], the remaining at 0.25 h, 1 µM turned out to be 9.6%. Further, the IC50 in data set [2] came out at 71 nM.

In the case of `Cc1cc(F)cnc1N1CCN(C(=O)CCCS(=O)(=O)c2cccc3ncsc23)[C@@H](C)C1`, the IC50 in data set [2] was determined as 1900 nM.

Turning to `N#Cc1ccc(C2=CCN(C(=O)CCS(=O)(=O)c3cccc4ncsc34)CC2)nc1`, the IC50 in data set [2] stood at 80 nM.

Take `O=C(CCS(=O)(=O)c1cccc2ncsc12)N1CCN(c2ccc(C(F)(F)F)cn2)CC1`: the remaining at 0.25 h, 1 µM in data set [1] worked out at 41%. In data set [2], the IC50 is 32 nM.

`Cc1cc(F)cnc1N1CCCN(C(=O)CCCc2cccc3ncccc23)CC1`: the IC50 in data set [2] was 1400 nM.

On to `O=C(CCCc1cccc2ncccc12)N1CC2CC1CN2c1ccc(F)cn1` (racemic), for which the IC50 in data set [2] was 950 nM.

Consider `O=C(CCS(=O)(=O)c1cccc2ncsc12)N1CCN(c2ccnc(C(F)(F)F)c2)CC1`, for which the IC50 in data set [2] stood at 4800 nM.

As for `Cc1cc(F)cnc1N1CCN(C(=O)CCCc2cccc3ncccc23)CC1`, the IC50 in data set [2] was found to be 69 nM.

Consider `N#Cc1ccc(C2CCN(C(=O)CCS(=O)(=O)c3cccc4ncsc34)CC2)nc1`, for which, in data set [2], the IC50 came to 19 nM.

For the molecule `Cc1cc(F)cnc1N1CCN(C(=O)CNCc2cccc3ncsc23)[C@@H](C)C1`, in data set [2], the IC50 turned out to be 3000 nM.

As to `Cc1ccncc1N1CCN(C(=O)CCS(=O)(=O)c2cccc3ncsc23)CC1`, the IC50 in data set [2] is 260 nM.
